Assay results from the supplement of paper PMC11061612.

Key:
[1] = system: TK (B-Cell Non-Hodgkin's Lymphoma); assay: combination Emax (second highest fraction inhibited in the dose matrix, 72 h); higher = more inhibition; extreme values may be limits of the assay
How it was run: (§1)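 After 24 hours at 37°C and 5% CO2 in 1536-well plates, cells in DMEM/F12 or RPMI plus 10% FBS received two-drug dose matrices for 72 hours. Viability came from CellTiter-Glo 2.0 luminescence and was scaled as inhibition, anchored at 0 by vehicle wells and at 1 by blank wells. Combination Emax is taken as the second-highest inhibition in the matrix, and Bliss excess as the observed combination effect less EA + EB − EA·EB, with EA and EB the single-agent effects.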

[2] = system: NCI-H2023 (Non-Small Cell Lung Carcinoma); assay: as above
How it was run: as §1

[3] = system: NCI-H1048 (Small Cell Lung Carcinoma); assay: as above
How it was run: as §1

GCIY (Gastric Carcinoma) = assay: as above
How it was run: as §1

[4] = system: RS4-11 (B-Lymphoblastic Leukemia); assay: as above
How it was run: as §1

[5] = system: NTERA-2-cl-D1 (Other Solid Carcinomas); assay: as above
How it was run: as §1

[6] = system: SW1463 (Colorectal Carcinoma); assay: as above
How it was run: as §1

[7] = system: BT-474 (Breast Carcinoma); assay: as above
How it was run: as §1

[8] = system: OVKATE (Ovarian Carcinoma); assay: as above
How it was run: as §1

[9] = system: SBC-3 (Small Cell Lung Carcinoma); assay: as above
How it was run: as §1

[10] = system: NCI-H1944 (Lung Adenocarcinoma); assay: as above
How it was run: as §1

[11] = system: SUP-HD1 (Hodgkin's Lymphoma); assay: as above
How it was run: as §1

[12] = system: SCC90 (Head and Neck Carcinoma); assay: Bliss excess, mean over the matrix (fraction); higher = more synergy
How it was run: as §1

[13] = system: HT-1197 (Bladder Carcinoma); assay: as above
How it was run: as §1

[14] = system: SBC-5 (Small Cell Lung Carcinoma); assay: as above
How it was run: as §1

[15] = system: NCI-H2023 (Non-Small Cell Lung Carcinoma); assay: as above
How it was run: as §1

[16] = system: RPMI-8402 (T-Lymphoblastic Leukemia); assay: as above
How it was run: as §1

[17] = system: MRK-nu-1 (Breast Carcinoma); assay: as above
How it was run: as §1

NCI-H2452 (Mesothelioma) = assay: as above
How it was run: as §1

A375 (Melanoma) = assay: as above
How it was run: as §1
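Throughout, for Bliss excess, mean over the matrix: after 72 h of two-drug dosing.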

SMILES	combination Emax [1]	combination Emax [2]	combination Emax [3]	combination Emax (GCIY (Gastric Carcinoma))	combination Emax [4]	combination Emax [5]	combination Emax [6]	combination Emax [7]	combination Emax [8]	combination Emax [9]	combination Emax [10]	combination Emax [11]	Bliss excess [12]	Bliss excess [13]	Bliss excess [14]	Bliss excess [15]	Bliss excess [16]	Bliss excess [17]	Bliss excess (NCI-H2452 (Mesothelioma))	Bliss excess (A375 (Melanoma))
COc1cccc(OCCCN)c1-c1cc(Nc2cnc(C#N)cn2)n[nH]1 [Prexasertib] + CN(C)CCCOc1ccc(-c2ccc3ncc4c(c3c2)n(C2CCOCC2)c(=O)n4C)cn1 [AZD0156] (first compound max 1 µM, 7x7, partner max 1 µM)	0.918	0.806	0.685	0.853	1	0.227	0.716	0.237	0.275	0.8	0.785	0.886	-0.0634	-0.0183	-0.0086	-0.0373	-0.0172	0.0456	-0.0554	0.0098
CCN(CCO)CCCOc1ccc2c(Nc3cc(CC(=O)Nc4cccc(F)c4)[nH]n3)ncnc2c1 [AZD2811] + O=C(c1cc(Cc2n[nH]c(=O)c3ccccc23)ccc1F)N1CCN(C(=O)C2CC2)CC1 [Olaparib] (first compound max 1 µM, 7x7, partner max 10 µM)	0.206	0.415	0.698	0.427	0.987	0.65	0.226	0.168	0.239	0.617	0.243	0.718	0.0459	0.0045	0.033	-0.0737	-0.0279	-0.0037	-0.0675	0.0039
CC1(C)CCC(CN2CCN(c3ccc(C(=O)NS(=O)(=O)c4ccc(NCC5CCOCC5)c([N+](=O)[O-])c4)c(Oc4cnc5[nH]ccc5c4)c3)CC2)=C(c2ccc(Cl)cc2)C1 [Venetoclax] + C[C@@H](Nc1cc(F)cc(F)c1)c1cc(C(=O)N(C)C)cc2c(=O)cc(N3CCOCC3)oc12 [AZD8186] (first compound max 1 µM, 7x7, partner max 3 µM)	1	0.416	0.504	0.641	1	0.805	0.152	0.163	0.262	0.507	0.184	0.839	0.048	-0.0785	-0.022	-0.0539	0.0028	-0.0165	0.0255	-0.0326
Cn1cnc2c(F)c(Nc3ccc(Br)cc3Cl)c(C(=O)NOCCO)cc21 [Selumetinib] + C[C@@H]1COCCN1C2=NC(=NC(=C2)C3(CC3)[S@](=N)(=O)C)C4=C5C=CNC5=NC=C4 [AZD6738] (first compound max 10 µM, 7x7, partner max 10 µM)	0.909	0.477	0.67	0.704	0.953	0.351	0.643	0.0449	0.199	0.656	0.879	0.668	0.0126	0.0196	0.0096	-0.0255	-0.0196	-0.0317	-0.0476	0.0189
CC1(C)CCC(CN2CCN(c3ccc(C(=O)NS(=O)(=O)c4ccc(NCC5CCOCC5)c([N+](=O)[O-])c4)c(Oc4cnc5[nH]ccc5c4)c3)CC2)=C(c2ccc(Cl)cc2)C1 [Venetoclax] + C=CCn1c(=O)c2cnc(Nc3ccc(N4CCN(C)CC4)cc3)nc2n1-c1cccc(C(C)(C)O)n1 [AZD1775] (first compound max 1 µM, partner max 1 µM)	1	0.713	0.92	0.824	1	0.856	0.36	0.516	0.381	0.899	0.728	0.921	-0.0466	-0.001	-0.0709	0.0053	-0.0203	-0.0341	0.0036	-0.0142
CC(=O)c1c(C)c2cnc(Nc3ccc(N4CCNCC4)cn3)nc2n(C2CCCC2)c1=O [Palbociclib] + Cn1cnc2c(F)c(Nc3ccc(Br)cc3Cl)c(C(=O)NOCCO)cc21 [Selumetinib] (first compound max 10 µM, 7x7, partner max 10 µM)	0.196	0.209	0.0486	0.416	0.488	0.249	0.646	0.0817	0.219	0.744	0.534	0.445	-0.0058	-0.0257	0.0396	-0.0313	-0.0374	0.0259	-0.0682	0.0027
CC1(C)CCC(CN2CCN(c3ccc(C(=O)NS(=O)(=O)c4ccc(NCC5CCOCC5)c([N+](=O)[O-])c4)c(Oc4cnc5[nH]ccc5c4)c3)CC2)=C(c2ccc(Cl)cc2)C1 [Venetoclax] + CCN(CCO)CCCOc1ccc2c(Nc3cc(CC(=O)Nc4cccc(F)c4)[nH]n3)ncnc2c1 [AZD2811] (first compound max 1 µM, 7x7, partner max 1 µM)	1	0.378	0.73	0.386	1	0.831	0.157	0.218	0.153	0.766	0.255	0.922	0.169	-0.0204	0.0161	-0.067	-0.0241	0.0341	0.0268	-0.0095
COc1cccc(OCCCN)c1-c1cc(Nc2cnc(C#N)cn2)n[nH]1 [Prexasertib] + CCc1c2c(nc3ccc(O)cc13)-c1cc3c(c(=O)n1C2)COC(=O)[C@]3(O)CC [SN-38] (first compound max 1 µM, 7x7, partner max 0.3 µM)	1	0.783	1	0.929	1	0.981	0.741	0.244	0.258	0.957	0.857	0.954	0.127	-0.0376	0.0007	-0.0527	-0.0152	-0.0613	0.103	-0.0224
CN(C)CCCOc1ccc(-c2ccc3ncc4c(c3c2)n(C2CCOCC2)c(=O)n4C)cn1 [AZD0156] + C=CCn1c(=O)c2cnc(Nc3ccc(N4CCN(C)CC4)cc3)nc2n1-c1cccc(C(C)(C)O)n1 [AZD1775] (first compound max 1 µM, partner max 1 µM)	0.945	0.633	0.664	0.63	0.881	0.376	0.422	0.195	0.336	0.442	0.618	0.836	-0.0542	-0.102	-0.018	0.0007	0.0026	-0.0082	-0.0253	-0.0275
Cc1c2c(nn1C)CSCc1cc(n(C)n1)CSc1cc(c3ccccc3c1)OCCCc1c(C(=O)O)n(C)c3c-2c(Cl)ccc13 [AZD5991] + CC1(C)CCC(CN2CCN(c3ccc(C(=O)NS(=O)(=O)c4ccc(NCC5CCOCC5)c([N+](=O)[O-])c4)c(Oc4cnc5[nH]ccc5c4)c3)CC2)=C(c2ccc(Cl)cc2)C1 [Venetoclax] (first compound max 1 µM, 7x7, partner max 1 µM)	1	0.205	0.954	0.343	1	0.916	0.131	0.351	0.147	0.69	0.214	0.959	0.0246	-0.0257	-0.0218	-0.0387	0.035	0.0139	-0.0471	-0.0063
NC1(C(=O)N[C@@H](CCO)c2ccc(Cl)cc2)CCN(c2ncnc3[nH]ccc23)CC1 [Capivasertib] + C[C@@H]1COCCN1C2=NC(=NC(=C2)C3(CC3)[S@](=N)(=O)C)C4=C5C=CNC5=NC=C4 [AZD6738] (first compound max 10 µM, 7x7, partner max 10 µM)	0.871	0.655	0.667	0.751	0.967	0.477	0.42	0.406	0.265	0.69	0.974	0.762	-0.0541	-0.0491	-0.0169	0.0282	-0.0768	0.0032	-0.0827	-0.0239
COc1nnc2ccc(N3CCC(c4ccc(OCCN5CCN(C)C(=O)[C@H]5C)cc4)CC3)nn12 [AZD5153] + C[C@@H]1COCCN1C2=NC(=NC(=C2)C3(CC3)[S@](=N)(=O)C)C4=C5C=CNC5=NC=C4 [AZD6738] (first compound max 1 µM, 7x7, partner max 10 µM)	0.968	0.7	0.678	0.794	0.944	0.832	0.555	0.483	0.324	0.784	0.88	0.823	0.0164	-0.0082	-0.0151	0.0692	-0.0209	-0.0072	0.0045	0.0552
CS(=O)(=O)CCNCc1ccc(-c2ccc3ncnc(Nc4ccc(OCc5cccc(F)c5)c(Cl)c4)c3c2)o1 [Lapatinib] + C[C@@H](Oc1cc(-c2cnn(C3CCNCC3)c2)cnc1N)c1c(Cl)ccc(F)c1Cl [Crizotinib] (first compound max 10 µM, 7x7, partner max 10 µM)	0.701	0.687	0.525	0.882	0.883	0.957	0.802	0.905	0.391	0.971	0.958	0.895	0.0827	-0.0307	0.0601	-0.026	-0.0375	0.0477	-0.0932	-0.0461
